Consider 31 molecules from US7608716B2, “Pyrazolonaphthyridine derivative” (Aska Pharmaceutical Co., Ltd., priority 2002, dated 2009).

Bounds are passed on as bounds.

One series relates to T1, PDE IV isozymes separated from U937 culture cells.
T1 construct: PDE IV isozymes as used herein were separated from U937 culture cells by using an anion exchange chromatography
Nature of the series: PDE IV inhibition ([3H]-cAMP hydrolysis). The conditions noted are these: cAMP 1 μM substrate, 30° C., 20 minutes. The format is biochemical. The protocol:
PDE IV isozymes as used herein were separated from U937 culture cells by using an anion exchange chromatography. Type IV PDE isozyme was admixed with ethylene glycol (EG) to adjust the final EG concentration to 30%, then stored at −20° C. and diluted when used. The enzymatic activity for PDE IV was measured using cAMP as a substrate.
Each test compound was dissolved in DMSO to adjust the final concentration to 1% (2.5 μl/tube).
Incubation Buffer Solution (pH7.5):
• Tris-HCl (50 mM), magnesium chloride (6 mM), dithiothreitol (2.5 mM), 5-nucleotidase (4 μg/ml), bovine serum albumin (0.23 mg/ml), and cAMP (1 μM).
A mixture of the aforementioned test compound solution and the buffer solution was incubated at 30° C. for 20 minutes. The reaction was quenched by admixing with 1 ml of anion exchange resin slurry (AG1-X8, 200-400 meshes, chloride form; Bio-Rad) to absorb unreacted substrates. After the reaction stopped, the mixture was centrifuged at 800×g for 10 minutes, and the resulting supernatant was collected with vials in 250 μl aliquots. To each vial was added 5 ml of ACS-II (scintillator, Amersham). The radioactivity was measured with a liquid scintillator counter for [^3H]-adenosine and set as the PDE IV activity.
`Nc1ccc(Cc2n[nH]c3c2c(=O)n(-c2ccccc2)c2ncccc32)cc1` [Example No. 43, 3-(4-aminobenzyl)-5-phenyl-1H-pyrazolo[4,3-c][1,8]-naphthyridin-4 (5H)-one] came in with an IC50 of 0.086 µM.

Tested on in another series: not given
Assay: not given
Conditions: not given
`CS(=O)(=O)Nc1ccc(CCc2n[nH]c3c2c(=O)n(-c2ccccc2)c2ncccc32)cc1` [Example 48, 3-[2-(4-methanesulfonylaminophenyl)ethyl]-5-phenyl-1H-pyrazolo[4,3-c][1,8]naphthyridin-4 (5H)-one] had a melting point of 284 to 285 °C.

Molecule `NC(=O)Nc1ccccc1CCc1n[nH]c2c1c(=O)n(-c1ccccc1)c1ncccc21` [Example 50, 5-phenyl-3-[2-(2-ureidophenyl)ethyl]-1H-pyrazolo[4,3-c][1,8]naphthyridin-4 (5H)-one] had a melting point of 300 to 305 °C.

For the molecule `COc1ccc(Cc2n[nH]c3c2c(=O)n(-c2ccccc2)c2ncccc32)c(OC)c1` (hydrate or solvate) [Example No. 30, 3-(2,4-dimethoxybenzyl)-5-phenyl-1H-pyrazolo[4,3-c][1,8]naphthyridin-4 (5H)-one], the melting point fell in the range of 266 to 267 °C.

As to `COc1cccc(Cc2n[nH]c3c2c(=O)n(-c2ccccc2)c2ncccc32)c1` (hydrate or solvate) [Example 20, 3-(3-methoxybenzyl)-5-phenyl-1H-pyrazolo[4,3-c][1,8]naphthyridin-4 (5H)-one], the melting point was 234 to 236 °C.

Turning to `O=c1c2c(Cc3ccccc3[N+](=O)[O-])n[nH]c2c2cccnc2n1-c1ccccc1` (hydrate or solvate) [Example No. 26, 3-(2-nitrobenzyl)-5-phenyl-1H-pyrazolo[4,3-c][1,8]naphthyridin-4 (5H)-one], the melting point is 318 to 320 °C (dec.).

In turn, `N#Cc1ccccc1CCc1n[nH]c2c1c(=O)n(-c1ccccc1)c1ncccc21` (hydrate or solvate) [Example 17, 3-[2-(2-cyanophenyl)ethyl]-5-phenyl-1H-pyrazolo[4,3-c][1,8]naphthyridin-4 (5H)-one] displayed a melting point of 315.5 to 316.5 °C.

For `O=C(O)c1cccc(CCc2n[nH]c3c2c(=O)n(-c2ccccc2)c2ncccc32)c1` [Example 38, 3-[2-(3-carboxyphenyl)ethyl]-5-phenyl-1H-pyrazolo[4,3-c][1,8]naphthyridin-4 (5H)-one], the melting point lay in the range of 159 to 161 °C.

In turn, `O=c1c2c(CCc3cccc([N+](=O)[O-])c3)n[nH]c2c2cccnc2n1-c1ccccc1` (hydrate or solvate) [Example 15, 3-[2-(3-nitrophenyl)ethyl]-5-phenyl-1H-pyrazolo[4,3-c][1,8]naphthyridin-4 (5H)-one] returned a melting point of 245 to 247 °C.

Turning to `CS(=O)(=O)Nc1ccc(Cc2n[nH]c3c2c(=O)n(-c2ccccc2)c2ncccc32)cc1` [Example 49, 3-(4-methanesulfonylaminobenzyl)-5-phenyl-1H-pyrazolo[4,3-c][1,8]naphthyridin-4 (5H)-one], the melting point lay within 306 to 307 °C.

For the molecule `O=c1c2c(CCc3ccncc3)n[nH]c2c2cccnc2n1-c1ccccc1` [Example 1, 5-phenyl-3-[2-(pyridin-4-yl)ethyl]-1H-pyrazolo[4,3-c][1,8]-naphthyridin-4 (5H)-one], the melting point was 267 to 269 °C.

Regarding `O=c1c2c(CCc3ccc([N+](=O)[O-])cc3)n[nH]c2c2cccnc2n1-c1ccccc1` (hydrate or solvate) [Example 11, 3-[2-(4-nitrophenyl)ethyl]-5-phenyl-1H-pyrazolo[4,3-c][1,8]naphthyridin-4 (5H)-one], the melting point fell in the range of 260 to 262 °C.

The molecule `O=C(O)c1ccccc1CCc1n[nH]c2c1c(=O)n(-c1ccccc1)c1ncccc21` (hydrate or solvate) [Example 37, 3-[2-(2-carboxyphenyl)ethyl]-5-phenyl-1H-pyrazolo[4,3-c][1,8]naphthyridin-4 (5H)-one] showed a melting point of 302 to 308 °C.

On to `O=c1c2c(Cc3cccs3)n[nH]c2c2cccnc2n1-c1ccccc1` (hydrate or solvate) [Example No. 23, 3-(2-thienylmethyl)-5-phenyl-1H-pyrazolo[4,3-c][1,8]naphthyridin-4 (5H)-one], for which the melting point was in the range of 282 to 284 °C.

`COc1ccc(Cc2n[nH]c3c2c(=O)n(-c2ccccc2)c2ncccc32)cc1` (hydrate or solvate) [Example No. 21, 3-(4-methoxybenzyl)-5-phenyl-1H-pyrazolo[4,3-c][1,8]naphthyridin-4 (5H)-one] gave a melting point of 300 to 302 °C.

With `N#Cc1ccc(Cc2n[nH]c3c2c(=O)n(-c2ccccc2)c2ncccc32)cc1` (hydrate or solvate) [Example 31, 3-(4-cyanobenzyl)-5-phenyl-1H-pyrazolo[4,3-c][1,8]naphthyridin-4 (5H)-one], the melting point is 316 to 318 °C (dec.).

`COc1ccc(OC)c(Cc2n[nH]c3c2c(=O)n(-c2ccccc2)c2ncccc32)c1` (hydrate or solvate) [Example No. 27, 3-(2,5-dimethoxybenzyl)-5-phenyl-1H-pyrazolo[4,3-c][1,8]naphthyridin-4 (5H)-one]: the melting point is 248 to 250 °C.

In turn, `CCOC(=O)Cc1ccc(Cc2n[nH]c3c2c(=O)n(-c2ccccc2)c2ncccc32)cc1` (hydrate or solvate) [Example No. 32, 3-(4-ethoxycarbonylmethylbenzyl)-5-phenyl-1H-pyrazolo[4,3-c][1,8]naphthyridin-4 (5H)-one] yielded a melting point of 263 to 264 °C.

Consider `O=c1c2c(Cc3cccc([N+](=O)[O-])c3)n[nH]c2c2cccnc2n1-c1ccccc1` (hydrate or solvate) [Example 25, 3-(3-nitrobenzyl)-5-phenyl-1H-pyrazolo[4,3-c][1,8]naphthyridin-4 (5H)-one], for which the melting point is over 320 °C.

Turning to `Nc1cccc(-n2c(=O)c3c(CCc4ccncc4)n[nH]c3c3cccnc32)c1` [Example 8, 5-(3-aminophenyl)-3-[2-(pyridin-4-yl)ethyl]-1H-pyrazolo[4,3-c][1,8]naphthyridin-4 (5H)-one], the melting point fell in the range of 261 to 263 °C.

The molecule `N#Cc1cccc(CCc2n[nH]c3c2c(=O)n(-c2ccccc2)c2ncccc32)c1` (hydrate or solvate) [Example 18, 3-[2-(3-cyanophenyl)ethyl]-5-phenyl-1H-pyrazolo[4,3-c][1,8]naphthyridin-4 (5H)-one] showed a melting point of 219.5 to 224.5 °C.

Take `CS(=O)(=O)c1ccc(Cc2n[nH]c3c2c(=O)n(-c2ccccc2)c2ncccc32)cc1` (hydrate or solvate) [Example 34, 3-(4-methylsulfonylbenzyl)-5-phenyl-1H-pyrazolo[4,3-c][1,8]naphthyridin-4 (5H)-one]: the melting point lay in the range of 311.5 to 312.5 °C.

Molecule `O=c1c2c(CCc3ccccc3[N+](=O)[O-])n[nH]c2c2cccnc2n1-c1ccccc1` (hydrate or solvate) [Example 16, 3-[2-(2-nitrophenyl)ethyl]-5-phenyl-1H-pyrazolo[4,3-c][1,8]naphthyridin-4 (5H)-one] displayed a melting point of 333 to 335 °C.

`COc1ccc(Cc2n[nH]c3c2c(=O)n(-c2ccccc2)c2ncccc32)cc1OC` (hydrate or solvate) [Example 28, 3-(3,4-dimethoxybenzyl)-5-phenyl-1H-pyrazolo[4,3-c][1,8]naphthyridin-4 (5H)-one] gave a melting point of 230 to 232 °C.

Molecule `COc1ccccc1Cc1n[nH]c2c1c(=O)n(-c1ccccc1)c1ncccc21` (hydrate or solvate) [Example No. 22, 3-(2-methoxybenzyl)-5-phenyl-1H-pyrazolo[4,3-c][1,8]naphthyridin-4 (5H)-one] returned a melting point of 276 to 277 °C.

Regarding `O=c1c2c(CCc3cccnc3)n[nH]c2c2cccnc2n1-c1ccccc1` [Example 3, 5-phenyl-3-[2-(pyridin-3-yl)ethyl]-1H-pyrazolo[4,3-c][1,8]-naphthyridin-4 (5H)-one], the melting point is 322 °C (dec.).

`O=C(O)c1ccc(CCc2n[nH]c3c2c(=O)n(-c2ccccc2)c2ncccc32)cc1` (hydrate or solvate) [Example No. 14, 3-[2-(4-carboxyphenyl)ethyl]-5-phenyl-1H-pyrazolo[4,3-c][1,8]naphthyridin-4 (5H)-one] came in with a melting point of 318 to 320 °C.

With `O=c1c2c(Cc3ccccc3O)n[nH]c2c2cccnc2n1-c1ccccc1` [Example 42, 3-(2-hydroxybenzyl)-5-phenyl-1H-pyrazolo[4,3-c][1,8]-naphthyridin-4 (5H)-one], the melting point fell in the range of 278 to 280 °C.

Consider `O=c1c2c(Cc3cccnc3)n[nH]c2c2cccnc2n1-c1ccccc1` [Example 4, 5-phenyl-3-(pyridin-3-yl)methyl-1H-pyrazolo[4,3-c][1,8]-naphthyridin-4 (5H)-one], for which the melting point was 306 °C (dec.).

The molecule `Nc1ccc(CCc2n[nH]c3c2c(=O)n(-c2ccccc2)c2ncccc32)cc1` (hydrate or solvate) [Example No. 13, 3-[2-(4-aminophenyl)ethyl]-5-phenyl-1H-pyrazolo[4,3-c][1,8]naphthyridin-4 (5H)-one] registered a melting point of over 310 °C.

`COc1cc(Cc2n[nH]c3c2c(=O)n(-c2ccccc2)c2ncccc32)cc(OC)c1` (hydrate or solvate) [Example 29, 3-(3,5-dimethoxybenzyl)-5-phenyl-1H-pyrazolo[4,3-c][1,8]naphthyridin-4 (5H)-one]: the melting point was 258 to 259 °C.
